These results are taken from patent US8399491B2, “Derivatives of indole-2-carboxamides and of azaindole-2-carboxamides substituted with a silanyl group, preparation thereof and therapeutic use thereof” (Sanofi, priority 2008, dated 2013).

T1 sequence (O35433 whole entry): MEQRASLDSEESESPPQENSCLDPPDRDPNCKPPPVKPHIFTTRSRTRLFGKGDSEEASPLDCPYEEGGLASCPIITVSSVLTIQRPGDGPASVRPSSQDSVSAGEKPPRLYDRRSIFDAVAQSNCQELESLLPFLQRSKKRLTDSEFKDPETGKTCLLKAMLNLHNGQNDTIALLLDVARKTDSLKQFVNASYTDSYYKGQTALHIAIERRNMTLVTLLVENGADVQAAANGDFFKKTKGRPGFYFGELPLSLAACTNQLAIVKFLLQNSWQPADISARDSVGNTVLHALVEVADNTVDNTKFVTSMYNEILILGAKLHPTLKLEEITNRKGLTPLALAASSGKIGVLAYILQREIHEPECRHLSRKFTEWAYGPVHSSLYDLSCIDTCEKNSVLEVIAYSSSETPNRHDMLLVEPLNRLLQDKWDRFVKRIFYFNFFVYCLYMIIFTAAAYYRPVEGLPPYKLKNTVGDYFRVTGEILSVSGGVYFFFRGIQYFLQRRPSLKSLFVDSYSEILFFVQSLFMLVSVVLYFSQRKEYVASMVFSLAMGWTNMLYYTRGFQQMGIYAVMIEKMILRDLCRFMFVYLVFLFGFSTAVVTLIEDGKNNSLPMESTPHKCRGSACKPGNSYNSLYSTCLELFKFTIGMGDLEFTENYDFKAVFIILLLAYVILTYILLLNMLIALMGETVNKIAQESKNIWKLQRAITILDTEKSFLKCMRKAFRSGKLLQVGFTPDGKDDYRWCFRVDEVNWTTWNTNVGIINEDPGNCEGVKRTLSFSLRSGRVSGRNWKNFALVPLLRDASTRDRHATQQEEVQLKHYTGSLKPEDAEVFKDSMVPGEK

One data set addresses T1, TRPV1 receptor (Rattus norvegicus, UniProt O35433).
T1 construct: The neurones of the DRG naturally express the TRPV1 receptor; endogenous in cells; host or cells: primary culture of newborn rat dorsal root ganglion (DRG) neurones
The data set is described as follows: Inhibition of the current induced by capsaicin on rat DRGs (whole-cell patch-clamp). In kind it is cell-based. The conditions noted are these: compound at 1 nM; capsaicin response (1 microM); newborn rat DRG primary culture. The procedure: Test for Inhibition of the Current Induced by Capsaicin on Rat DRGs
Primary Culture of Rat Dorsal Route Ganglion (DRG) Cells:
The neurones of the DRG naturally express the TRPV1 receptor.
Newborn rat DRG primary cultures are prepared from 1-day-old rat pups. Briefly, after dissection, the ganglia are trypsinized and the cells are mechanically dissociated by controlled trituration. The cells are resuspended in an Eagle's basal culture medium containing 10% of foetal calf serum, 25 mM KCl, 2 mM glutamine, 100 μg/ml gentamicin and 50 ng/ml of NGF, and then deposited onto laminin-coated glass coverslips (0.2×10^6 cells per coverslip) which are then placed in Corning 12-well dishes. […]
The measuring chambers (volume 800 μl) containing the cell preparation are placed on the platform of an inverted microscope (Olympus IMT2) equipped with Hoffman optics (Modulation Contrast, New York) and observed at the magnification of ×400. […] The overall currents (membrane potential fixed at −60 mV) are recorded with an Axopatch 1D amplifier (Axon Instruments, Foster city, Calif.), connected to a PC controlled by Pclamp8 software (Axon Instruments). The current traces are recorded on paper and simultaneously digitized (sampling frequency 15 to 25 Hz) and acquired on the hard drive of the PC. […] The results are expressed as % inhibition of the control capsaicin response.
In general terms: Patch clamp records ionic current or voltage across a cell membrane.
One may read the inhibition as the drop in the measured response relative to a control, in per cent. In turn, `C[Si](C)(C)c1ccc2cc(C(=O)Nc3ccc(N4CC(O)C4)nc3)n(Cc3cccc(F)c3)c2c1` [Compound 2, N-[6-(3-Hydroxyazetidin-1-yl)pyridin-3-yl]-6-trimethylsilyl-1-[(3-fluorophenyl)methyl]-1H-indole-2-carboxamide] displayed an inhibition at 0.001 µM of 84%.

Still in this data set, the particulars now being: compound at 10 nM; capsaicin response (1 microM); newborn rat DRG primary culture.
Take `C[Si](C)(C)c1ccc2c(c1)cc(C(=O)Nc1ccc(N3CCC3)nc1)n2Cc1cccc(F)c1` [Compound 3, N-[6-(Azetidin-1-yl)pyridin-3-yl]-5-trimethylsilyl-1-[(3-fluorophenyl)methyl]-1H-indole-2-carboxamide]: 0.01 µM produced 95% inhibition.

Tested on in the next data set: not given
Test: not given
Conditions: not given
Broadly, the melting point is the temperature of the solid-liquid transition. For the molecule `C[Si](C)(C)c1cccc2cc(C(=O)Nc3ccc(N4CCC4)nc3)n(Cc3cccc(F)c3)c12`, the melting point lay within 160 to 162 °C.
On the same count and under the same terms, the figure for `C[Si](C)(C)c1cccc2cc(C(=O)Nc3ccc(N4CC(O)C4)nc3)n(Cc3cccc(F)c3)c12` is 215 to 217 °C; for `CC(C)[Si](C)(C)c1ccc2c(c1)cc(C(=O)Nc1ccc(N3CCC3)nc1)n2Cc1cccc(F)c1` it is 179 to 180 °C.
The molecule `CC[Si](C)(C)c1ccc2c(c1)cc(C(=O)Nc1ccc(N3CCC3)nc1)n2Cc1cccc(F)c1` returned a melting point of 188 to 189 °C.
The molecule `C[Si](C)(c1ccccc1)c1ccc2c(c1)cc(C(=O)Nc1ccc(N3CCC3)nc1)n2Cc1cccc(F)c1` yielded a melting point of 200 to 202 °C.
`O=C(Nc1ccc(N2CCC2)nc1)c1cc2cc([SiH2]C(c3ccccc3)c3ccccc3)ccc2n1Cc1cccc(F)c1` came in with a melting point of 98 to 100 °C.
For `C[Si](C)(c1ccc2c(c1)cc(C(=O)Nc1ccc(N3CCCC3)nc1)n2Cc1cccc(F)c1)C1CCCCC1`, the melting point is 192 to 194 °C.
Regarding `C[Si](C)(C)c1ccc2c(c1)cc(C(=O)Nc1ccc(N3CC(O)C3)nc1)n2Cc1cccc(F)c1`, the melting point is 207 to 208 °C.
The same measure, in the same setting: for `C[Si](C)(c1ccc2c(c1)cc(C(=O)Nc1ccc(N3CCC3)nc1)n2Cc1cccc(F)c1)C1CCCCC1` the value was 202 to 203 °C; for `CC[Si](CC)(CC)c1ccc2c(c1)cc(C(=O)Nc1ccc(N3CCC3)nc1)n2Cc1cccc(F)c1`, 166 to 168 °C; for `CC(C)(C)[Si](C)(C)c1ccc2c(c1)cc(C(=O)Nc1ccc(N3CCC3)nc1)n2Cc1cccc(F)c1`, 110 to 112 °C.
`CC[Si](C)(CC)c1ccc2c(c1)cc(C(=O)Nc1ccc(N3CCC3)nc1)n2Cc1cccc(F)c1` gave a melting point of 171 to 173 °C.
Consider `C[Si](C)(C)c1ccc2c(c1)cc(C(=O)Nc1ccc(N3CCC3)nc1)n2Cc1cccc(F)c1` [Compound 3, N-[6-(Azetidin-1-yl)pyridin-3-yl]-5-trimethylsilyl-1-[(3-fluorophenyl)methyl]-1H-indole-2-carboxamide], for which the melting point lay within 212 to 213 °C.
